BindingDB's records for doi:10.1016/0968-0896(96)00130-7 (Sankyo, 1996)

Target: T1, Dimer of Gag-Pol polyprotein [489-587] (Human immunodeficiency virus 1, UniProt P12497)
T1 construct: 489-587
Test: Protease Inhibition Assay
Settings: pH 4.7; 37 °C
Experimental: The inhibitory activities of the compounds toward HIV-1 PR were determined by sodium dodecyl sulfate-polyacrylamide gel electrophoresis (SDS-PAGE) assay. The Ki values of active compounds were determined using the partially purified protease and the synthetic substrate Ac-Ser-Gln-AsnTyr-Pro-Ile-Val-NH2.

| SMILES | Ki [nM] |
| --- | --- |
| CC(C)(C)NC(=O)[C@@H]1CC(Cl)CN1C(=O)[C@@H](O)[C@H](Cc1ccccc1)NC(=O)[C@H](CC(N)=O)NC(=O)OCc1ccccc1 (stereo partly drawn) [benzyl N-[(1S)-1-{[(2S,3S)-4-[(2S)-2-(tert-butylcarbamoyl)-4-chloropyrrolidin-1-yl]-3-hydroxy-4-oxo-1-phenylbutan-2-yl]carbamoyl}-2-carbamoylethyl]carbamate] | 8 |
| CC(C)(C)NC(=O)[C@@H]1CCCN1C(=O)[C@@H](O)[C@H](Cc1ccccc1)NC(=O)[C@H](CC(N)=O)NC(=O)OCc1ccccc1 [benzyl N-[(1S)-1-{[(2S,3S)-4-[(2S)-2-(tert-butylcarbamoyl)pyrrolidin-1-yl]-3-hydroxy-4-oxo-1-phenylbutan-2-yl]carbamoyl}-2-carbamoylethyl]carbamate] | 57.5 |
| CC(C)(C)NC(=O)[C@@H]1C(O)CCN1C(=O)[C@@H](O)[C@H](Cc1ccccc1)NC(=O)[C@H](CC(N)=O)NC(=O)OCc1ccccc1 (stereo partly drawn) [benzyl N-[(1S)-1-{[(2S,3S)-4-[(2S)-2-(tert-butylcarbamoyl)-3-hydroxypyrrolidin-1-yl]-3-hydroxy-4-oxo-1-phenylbutan-2-yl]carbamoyl}-2-carbamoylethyl]carbamate] | 0.1 |
| CC(C)(C)NC(=O)[C@@H]1C[C@H](Cl)CN1C(=O)[C@@H](O)[C@H](Cc1ccccc1)NC(=O)[C@H](CC(N)=O)NC(=O)c1cc2cc(F)ccc2[nH]1 [(2S)-N-[(2S,3S)-4-[(2S,4S)-2-(tert-butylcarbamoyl)-4-chloropyrrolidin-1-yl]-3-hydroxy-4-oxo-1-phenylbutan-2-yl]-2-[(5-fluoro-1H-indol-2-yl)formamido]butanediamide] | 12.5 |
| CC(C)(C)NC(=O)[C@@H]1CC(F)CN1C(=O)[C@@H](O)[C@H](Cc1ccccc1)NC(=O)[C@H](CC(N)=O)NC(=O)OCc1ccccc1 (stereo partly drawn) [Z-Asn-(2S,3S)-AHPBA-[4(S)-fluoro] Pro tert-butylamide] | 18 |
| CC(C)(C)NC(=O)[C@@H]1C[C@H](Cl)CN1C(=O)[C@@H](O)[C@H](Cc1ccccc1)NC(=O)[C@H](CC(N)=O)NC(=O)c1cnc2ccccc2n1 [(Quinoxaline-2-carbonyl)-Asn-(2S,3S)-AHPBA-[4(S)-chloro]Pro tert-butylamide] | 4.7 |
| COc1ccc2[nH]c(C(=O)N[C@@H](CC(N)=O)C(=O)N[C@@H](Cc3ccccc3)[C@H](O)C(=O)N3C[C@@H](Cl)C[C@H]3C(=O)NC(C)(C)C)cc2c1 [(2S)-N-[(2S,3S)-4-[(2S,4S)-2-(tert-butylcarbamoyl)-4-chloropyrrolidin-1-yl]-3-hydroxy-4-oxo-1-phenylbutan-2-yl]-2-[(5-methoxy-1H-indol-2-yl)formamido]butanediamide] | 21.5 |
| Cn1cc(C(=O)N[C@@H](CC(N)=O)C(=O)N[C@@H](Cc2ccccc2)[C@H](O)C(=O)N2C[C@@H](Cl)C[C@H]2C(=O)NC(C)(C)C)c2ccccc21 [(1-Methylindole-3-carbonyl)- Asn - (2S,3S)-AHPBA-[4(S)-chloro]Pro tert-butylamide] | 20 |
| COC1(OC)C[C@@H](C(=O)NC(C)(C)C)N(C(=O)[C@@H](O)[C@H](Cc2ccccc2)NC(=O)[C@H](CC(N)=O)NC(=O)OCc2ccccc2)C1 [benzyl N-[(1S)-1-{[(2S,3S)-4-[(2S)-2-(tert-butylcarbamoyl)-4,4-dimethoxypyrrolidin-1-yl]-3-hydroxy-4-oxo-1-phenylbutan-2-yl]carbamoyl}-2-carbamoylethyl]carbamate] | 92 |
| COc1cccc2cc(C(=O)N[C@@H](CC(N)=O)C(=O)N[C@@H](Cc3ccccc3)[C@H](O)C(=O)N3C[C@@H](Cl)C[C@H]3C(=O)NC(C)(C)C)oc12 [(2S)-N-[(2S,3S)-4-[(2S,4S)-2-(tert-butylcarbamoyl)-4-chloropyrrolidin-1-yl]-3-hydroxy-4-oxo-1-phenylbutan-2-yl]-2-[(7-methoxy-1-benzofuran-2-yl)formamido]butanediamide] | 4.5 |
| CC(C)(C)NC(=O)[C@@H]1C[C@@H](O)CN1C(=O)[C@@H](O)[C@H](Cc1ccccc1)NC(=O)[C@H](CC(N)=O)NC(=O)OCc1ccccc1 [benzyl N-[(1S)-1-{[(2S,3S)-4-[(2S,4R)-2-(tert-butylcarbamoyl)-4-hydroxypyrrolidin-1-yl]-3-hydroxy-4-oxo-1-phenylbutan-2-yl]carbamoyl}-2-carbamoylethyl]carbamate] | 56 |
| CC(C)(C)NC(=O)[C@@H]1CC(Br)CN1C(=O)[C@@H](O)[C@H](Cc1ccccc1)NC(=O)[C@H](CC(N)=O)NC(=O)OCc1ccccc1 (stereo partly drawn) [Z-Asn-(2S,3S)-AHPBA.[4(S)-bromo]Pro tert-butylamide] | 22.5 |
| CC(C)(C)NC(=O)[C@@H]1CC(F)(F)CN1C(=O)[C@@H](O)[C@H](Cc1ccccc1)NC(=O)[C@H](CC(N)=O)NC(=O)OCc1ccccc1 [benzyl N-[(1S)-1-{[(2S,3S)-4-[(2S)-2-(tert-butylcarbamoyl)-4,4-difluoropyrrolidin-1-yl]-3-hydroxy-4-oxo-1-phenylbutan-2-yl]carbamoyl}-2-carbamoylethyl]carbamate] | 35 |
| CC(C)(C)NC(=O)[C@@H]1[C@@H](O)CCN1C(=O)[C@@H](O)[C@H](Cc1ccccc1)NC(=O)[C@H](CC(N)=O)NC(=O)OCc1ccccc1 [Z.Asn-(2S,3S).AHPBA.[3(S)-hydroxy]Pro tert-butyl-amide] | 32 |
| CC(C)(C)NC(=O)[C@@H]1CC(Sc2ccccc2)CN1C(=O)[C@@H](O)[C@H](Cc1ccccc1)NC(=O)[C@H](CC(N)=O)NC(=O)OCc1ccccc1 (stereo partly drawn) [Z.Asn-(2S,3S)-AHPBA-[4(S)-phenylthio]Pro tert-butylamide] | 125 |
| Cn1nc(C(=O)N[C@@H](CC(N)=O)C(=O)N[C@@H](Cc2ccccc2)[C@H](O)C(=O)N2C[C@@H](Cl)C[C@H]2C(=O)NC(C)(C)C)c2ccccc21 [(2S)-N-[(2S,3S)-4-[(2S,4S)-2-(tert-butylcarbamoyl)-4-chloropyrrolidin-1-yl]-3-hydroxy-4-oxo-1-phenylbutan-2-yl]-2-[(1-methyl-1H-indazol-3-yl)formamido]butanediamide] | 16 |
| CC(C)(C)NC(=O)[C@@H]1CC(N2CCOCC2)CN1C(=O)[C@@H](O)[C@H](Cc1ccccc1)NC(=O)[C@H](CC(N)=O)NC(=O)OCc1ccccc1 (stereo partly drawn) [benzyl N-[(1S)-1-{[(2S,3S)-4-[(2S)-2-(tert-butylcarbamoyl)-4-(morpholin-4-yl)pyrrolidin-1-yl]-3-hydroxy-4-oxo-1-phenylbutan-2-yl]carbamoyl}-2-carbamoylethyl]carbamate] | 1 |
| CC(C)(C)NC(=O)[C@@H]1CC(O)CN1C(=O)[C@@H](O)[C@H](Cc1ccccc1)NC(=O)[C@H](CC(N)=O)NC(=O)OCc1ccccc1 (stereo partly drawn) [Z.Asn-(2S,3S)-AHPBA-[4(S)-hydroxy]Pro tert-butylamide] | 1 |
| CC(C)(C)NC(=O)[C@@H]1[C@@H](Cl)CCN1C(=O)[C@@H](O)[C@H](Cc1ccccc1)NC(=O)[C@H](CC(N)=O)NC(=O)OCc1ccccc1 [Z-Asn.(2S,3S)-AHPBA.[3(S)-chloro]Pro tert-butylamide] | 14.5 |
| CC(C)(C)NC(=O)[C@@H]1C[C@@H](Cl)CN1C(=O)[C@@H](O)[C@H](Cc1ccccc1)NC(=O)[C@H](CC(N)=O)NC(=O)OCc1ccccc1 [Z-Asn-(2S,3S).AHPBA. [4(R ).chloro] Pro tert-butylamide] | 90 |
| CC(C)(C)NC(=O)[C@@H]1C[C@H](Cl)CN1C(=O)[C@@H](O)[C@H](Cc1ccccc1)NC(=O)[C@H](CC(N)=O)NC(=O)c1noc2ccccc12 [(2S)-2-(1,2-benzoxazol-3-ylformamido)-N-[(2S,3S)-4-[(2S,4S)-2-(tert-butylcarbamoyl)-4-chloropyrrolidin-1-yl]-3-hydroxy-4-oxo-1-phenylbutan-2-yl]butanediamide] | 28 |
| CC(C)(C)NC(=O)[C@@H]1CC(=O)CN1C(=O)[C@@H](O)[C@H](Cc1ccccc1)NC(=O)[C@H](CC(N)=O)NC(=O)OCc1ccccc1 [Z-Asn.(2S,3S)-AHPBA.(4.oxo)Pro tert-butylamide] | 12.5 |
